Data from ChEMBL document CHEMBL2401689, “Design, synthesis and antibacterial activity studies of thiazole derivatives as potent ecKAS III inhibitors” (Bioorg Med Chem Lett, 2013).
In brackets after ≈: the same amount, converted by molar mass.

Experiments:
[1] = test system: Bacillus spizizenii; experiment: Antibacterial activity against Bacillus subtilis ATCC 6633 after 24 hrs by MTT assay; format: functional; details: ATCC 6633, 24 h
[2] = Hemolytic activity in RBC (uinknown origin); format: cell-based; details: erythrocyte
[3] = test system: Escherichia coli; experiment: Antibacterial activity against Escherichia coli ATCC 35218 after 24 hrs by MTT assay; format: functional; details: ATCC 35218, 24 h
[4] = test system: Pseudomonas aeruginosa; experiment: Antibacterial activity against Pseudomonas aeruginosa ATCC 13525 after 24 hrs by MTT assay; format: functional; details: ATCC 13525, 24 h
[5] = Displacement of [3H]acetyl-CoA from Escherichia coli full-length beta-ketoacyl-ACP synthase3 expressed in Escherichia coli BL21 (DE3) by liquid scintillation counting analysis
[6] = test system: Staphylococcus aureus; experiment: Antibacterial activity against Staphylococcus aureus ATCC 6538 after 24 hrs by MTT assay; format: functional; details: ATCC 6538, 24 h

Row | MIC [1] | MIC [3] | MIC [4] | IC50 [5] | MIC [6] | SMILES | LC30 [2]
1 | 12.5 µg/mL (≈ 38 µM) | 6.25 µg/mL (≈ 19 µM) | 6.25 µg/mL (≈ 19 µM) | 12.3 µM | 6.25 µg/mL (≈ 19 µM) | O=C(Cc1cccc(Cl)c1)Nc1nc(-c2ccccc2)cs1 | > 10000 µg/mL
2 | 12.5 µg/mL (≈ 30.7 µM) | 12.5 µg/mL (≈ 30.7 µM) | 25 µg/mL (≈ 61.3 µM) | 34.7 µM | 12.5 µg/mL (≈ 30.7 µM) | O=C(Cc1ccc(Cl)cc1)Nc1nc(-c2ccc(Br)cc2)cs1 | > 10000 µg/mL
3 | 6.25 µg/mL (≈ 16 µM) | 12.5 µg/mL (≈ 31.9 µM) | 12.5 µg/mL (≈ 31.9 µM) | 29.3 µM | 12.5 µg/mL (≈ 31.9 µM) | O=C(Cc1ccc(F)cc1)Nc1nc(-c2ccc(Br)cc2)cs1 | > 10000 µg/mL
4 | > 100 µg/mL | > 100 µg/mL | > 100 µg/mL |  | > 100 µg/mL | O=C(Nc1nc(-c2ccc(Br)cc2)cs1)c1ccccc1 | 
5 | > 100 µg/mL | > 100 µg/mL | > 100 µg/mL |  | > 100 µg/mL | O=C(Nc1nc(-c2ccccc2)cs1)c1cccc2ccccc12 | 
6 | 6.25 µg/mL (≈ 15.3 µM) | 1.56 µg/mL (≈ 3.83 µM) | 3.13 µg/mL (≈ 7.68 µM) | 5.3 µM | 3.13 µg/mL (≈ 7.68 µM) | O=C(Cc1cccc(Cl)c1)Nc1nc(-c2ccc(Br)cc2)cs1 | > 10000 µg/mL
7 | 12.5 µg/mL (≈ 38 µM) | 25 µg/mL (≈ 76 µM) | 25 µg/mL (≈ 76 µM) | 41.8 µM | 25 µg/mL (≈ 76 µM) | O=C(Cc1ccc(Cl)cc1)Nc1nc(-c2ccccc2)cs1 | > 10000 µg/mL
8 | 100 µg/mL (≈ 308 µM) | 50 µg/mL (≈ 154 µM) | 50 µg/mL (≈ 154 µM) |  | 50 µg/mL (≈ 154 µM) | COc1cccc(CC(=O)Nc2nc(-c3ccccc3)cs2)c1 | 
9 | 25 µg/mL (≈ 55.3 µM) | 25 µg/mL (≈ 55.3 µM) | 50 µg/mL (≈ 111 µM) | 48.1 µM | 25 µg/mL (≈ 55.3 µM) | O=C(Cc1ccc(Br)cc1)Nc1nc(-c2ccc(Br)cc2)cs1 | > 10000 µg/mL
10 | 0.39 µg/mL (≈ 0.807 µM) | 1.56 µg/mL (≈ 3.23 µM) | 3.13 µg/mL (≈ 6.47 µM) |  | 3.13 µg/mL (≈ 6.47 µM) | NC[C@H]1O[C@H](O[C@H]2[C@H](O)[C@@H](O[C@H]3O[C@H](CO)[C@@H](O)[C@H](N)[C@H]3O)[C@H](N)C[C@@H]2N)[C@H](N)[C@@H](O)[C@@H]1O [BEKANAMYCIN] | 
11 | 25 µg/mL (≈ 67 µM) | 50 µg/mL (≈ 134 µM) | 50 µg/mL (≈ 134 µM) |  | 25 µg/mL (≈ 67 µM) | O=C(Cc1ccccc1)Nc1nc(-c2ccc(Br)cc2)cs1 | 
12 | 12.5 µg/mL (≈ 40 µM) | 12.5 µg/mL (≈ 40 µM) | 25 µg/mL (≈ 80 µM) | 38.4 µM | 12.5 µg/mL (≈ 40 µM) | O=C(Cc1ccc(F)cc1)Nc1nc(-c2ccccc2)cs1 | > 10000 µg/mL
13 | > 100 µg/mL | > 100 µg/mL | > 100 µg/mL |  | > 100 µg/mL | O=C(Nc1nc(-c2ccccc2)cs1)c1ccccc1 | 
14 | 100 µg/mL (≈ 272 µM) | 50 µg/mL (≈ 136 µM) | > 100 µg/mL |  | > 100 µg/mL | O=C(Nc1nc(-c2ccc(Br)cc2)cs1)N1CCOCC1 | 
15 | > 100 µg/mL | 50 µg/mL (≈ 122 µM) | 100 µg/mL (≈ 244 µM) |  | > 100 µg/mL | O=C(Nc1nc(-c2ccc(Br)cc2)cs1)c1cccc2ccccc12 | 
16 | 6.25 µg/mL (≈ 13.8 µM) | 6.25 µg/mL (≈ 13.8 µM) | 12.5 µg/mL (≈ 27.6 µM) | 9.8 µM | 6.25 µg/mL (≈ 13.8 µM) | O=C(Cc1cccc(Br)c1)Nc1nc(-c2ccc(Br)cc2)cs1 | > 10000 µg/mL
17 | > 100 µg/mL | > 100 µg/mL | > 100 µg/mL |  | > 100 µg/mL | O=C(Nc1nc(-c2ccc(Br)cc2)cs1)c1ccc2ccccc2c1 | 
18 | 50 µg/mL (≈ 108 µM) | 50 µg/mL (≈ 108 µM) | 25 µg/mL (≈ 54.2 µM) |  | > 100 µg/mL | CCOc1ccc(CC(=O)Nc2nc(-c3ccc(Br)cc3)cs2)cc1OCC | 
19 | 25 µg/mL (≈ 67 µM) | 50 µg/mL (≈ 134 µM) | 50 µg/mL (≈ 134 µM) |  | 50 µg/mL (≈ 134 µM) | O=C(Cc1ccc(Br)cc1)Nc1nc(-c2ccccc2)cs1 | 
20 | 25 µg/mL (≈ 62 µM) | 25 µg/mL (≈ 62 µM) | 50 µg/mL (≈ 124 µM) | 65.6 µM | 50 µg/mL (≈ 124 µM) | COc1cccc(CC(=O)Nc2nc(-c3ccc(Br)cc3)cs2)c1 | > 10000 µg/mL
21 | > 100 µg/mL | > 100 µg/mL | > 100 µg/mL |  | > 100 µg/mL | O=C(Nc1nc(-c2ccccc2)cs1)N1CCOCC1 | 
22 | 50 µg/mL (≈ 151 µM) | > 100 µg/mL | > 100 µg/mL |  | > 100 µg/mL | O=C(Nc1nc(-c2ccccc2)cs1)c1ccc2ccccc2c1 | 
23 | 6.25 µg/mL (≈ 16.7 µM) | 12.5 µg/mL (≈ 33.5 µM) | 12.5 µg/mL (≈ 33.5 µM) | 26.9 µM | 3.13 µg/mL (≈ 8.39 µM) | O=C(Cc1cccc(Br)c1)Nc1nc(-c2ccccc2)cs1 | > 10000 µg/mL
24 | > 100 µg/mL | 50 µg/mL (≈ 131 µM) | 50 µg/mL (≈ 131 µM) |  | > 100 µg/mL | CCOc1ccc(CC(=O)Nc2nc(-c3ccccc3)cs2)cc1OCC | 
25 | 50 µg/mL (≈ 170 µM) | 100 µg/mL (≈ 340 µM) | 100 µg/mL (≈ 340 µM) |  | 25 µg/mL (≈ 84.9 µM) | O=C(Cc1ccccc1)Nc1nc(-c2ccccc2)cs1 | 

Row | SMILES | MIC [1] | MIC [3] | MIC [4] | IC50 [5] | MIC [6] | LC30 [2]
26 | CC1(C)S[C@@H]2[C@H](NC(=O)Cc3ccccc3)C(=O)N2[C@H]1C(=O)O [PENICILLIN G] | 1.56 µg/mL (≈ 4.67 µM) | 3.13 µg/mL (≈ 9.36 µM) | 6.25 µg/mL (≈ 18.7 µM) |  | 6.25 µg/mL (≈ 18.7 µM) | 
